We go through 4 molecules from publication PMC9391280, “A High-Throughput Fluorescent Turn-On Assay for Inhibitors of DHHC Family Proteins” (ACS Chemical Biology, 2022).

Read-outs that look alike come from different tables or passages of the source.

Data set [1] addresses T1, zDHHC2 (Homo sapiens, UniProt Q9UIJ5).
T1 sequence (Q9UIJ5 1-367): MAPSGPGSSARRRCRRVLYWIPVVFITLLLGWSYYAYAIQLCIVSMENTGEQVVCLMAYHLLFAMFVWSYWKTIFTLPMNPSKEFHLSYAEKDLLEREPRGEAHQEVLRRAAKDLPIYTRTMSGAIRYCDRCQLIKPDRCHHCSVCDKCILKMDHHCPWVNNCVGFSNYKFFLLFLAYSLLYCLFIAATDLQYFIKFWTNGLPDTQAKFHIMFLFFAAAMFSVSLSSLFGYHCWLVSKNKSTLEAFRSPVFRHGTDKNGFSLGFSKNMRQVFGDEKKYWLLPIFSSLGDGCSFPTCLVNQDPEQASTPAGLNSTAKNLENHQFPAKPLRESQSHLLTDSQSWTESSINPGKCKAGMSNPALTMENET
Nature of the data set: PTP fluorogenic assay, single concentration […]. The data set is classed as biochemical.

For data set [2], the target named is T2, zDHHC3 (Homo sapiens, UniProt Q9NYG2).
T2 sequence (Q9NYG2 1-299): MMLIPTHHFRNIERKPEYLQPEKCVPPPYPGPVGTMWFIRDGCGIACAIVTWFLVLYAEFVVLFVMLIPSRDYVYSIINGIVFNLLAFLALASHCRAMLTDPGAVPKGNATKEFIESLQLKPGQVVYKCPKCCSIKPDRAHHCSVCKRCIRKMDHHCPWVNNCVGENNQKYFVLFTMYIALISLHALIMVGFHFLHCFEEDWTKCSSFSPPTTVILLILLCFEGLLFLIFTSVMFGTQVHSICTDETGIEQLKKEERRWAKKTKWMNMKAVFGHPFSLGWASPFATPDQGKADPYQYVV
Nature of the data set: PTP fluorogenic assay, single concentration […]. It counts as biochemical.

The target of data set [3] is T3, zDHHC20 (Homo sapiens, UniProt Q5W0Z9).
T3 sequence (Q5W0Z9 1-365): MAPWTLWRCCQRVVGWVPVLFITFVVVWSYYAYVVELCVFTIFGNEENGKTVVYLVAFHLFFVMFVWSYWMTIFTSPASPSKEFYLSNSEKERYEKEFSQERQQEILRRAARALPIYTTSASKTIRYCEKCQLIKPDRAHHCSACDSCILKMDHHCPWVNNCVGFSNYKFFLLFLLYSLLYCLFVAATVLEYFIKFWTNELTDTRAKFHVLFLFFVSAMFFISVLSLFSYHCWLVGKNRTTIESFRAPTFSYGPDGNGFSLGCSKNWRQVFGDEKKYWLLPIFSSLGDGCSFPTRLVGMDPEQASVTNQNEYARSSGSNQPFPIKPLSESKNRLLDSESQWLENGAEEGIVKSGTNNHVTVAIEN
The data set can be described thus: PTP fluorogenic turn-on assay with purified zDHHC20. It counts as biochemical.

The target in data set [4] is T1, zDHHC2. Nature of the data set: fluorogenic probe uncaging by purified enzyme ([…] probe). It counts as biochemical.
In data set [5] the target is T2, zDHHC3. The data set is described as above. The data set is classed as biochemical.
Substrate in data set [6]: CCCCCCCCCCCCCCCC(=O)SCCN(C)C(=O)Oc1ccc2c(c1)Oc1cc(N3CCN(C(=O)CCCC(=O)O)CC3)ccc1C21OC(=O)c2ccccc21
The data set can be described thus: purified protein. As to conditions: palmitoyl-CoA mimetic; turnover depends on the key catalytic cysteine of the DHHC motif.

As to `CCCCCCCCCCCCCCC(Br)C(=O)O` (stereo not shown) [2BP, 2-Bromopalmitate], the “PTP fluorogenic assay, single concentration 20 μM” value in data set [1] is “both CMA and 2BP were able to inhibit zDHHC2, zDHHC3, and zDHHC20”; in data set [2] it was “both CMA and 2BP were able to inhibit zDHHC2, zDHHC3, and zDHHC20”. Moreover, in data set [3], it took 2.02 ± 0.29 µM to reach half-maximal inhibition (IC50).

`C=CC(=O)N(CC#N)CCCCCCCCCCCCCC` [CMA, cyanomyracrylamide]: the IC50 in data set [3] (read-out: IC50) came to 0.463 ± 0.07 µM.

Take `CCCCCCCCCCCCCCCC(=O)SCCN(C)C(=O)Oc1ccc2c(c1)Oc1cc(N3CCN(C(=O)CCN4CCOCC4)CC3)ccc1C21OC(=O)c2ccccc21` (stereo not shown) [PTP-3]: the “fluorogenic probe uncaging by purified enzyme (4 μM probe)” value in data set [4] is recorded as “PTP-3, the morpholino compound, was the best substrate for these two DHHCs”; in data set [5], “PTP-3, the morpholino compound, was the best substrate for these two DHHCs”.

B1: zDHHC20 (Homo sapiens) (protein)
chain: T3 sequence (Q5W0Z9 1-365)
For the molecule B1, the Km in data set [6] came out at 24.3 µM.
